We go through 68 compounds from the Kinase Knowledgebase extract (Sharma et al. 2016).

For one assay, the target named is PIK3CG (human) (UniProt P48736). Description: Assessment of PIK3CG Kinase Activity.
The next assay addresses PIK3CA (human) (UniProt P42336). The experiment in a line: Assessment of PIK3CA Kinase Activity.

The term Ki denotes the equilibrium dissociation constant of an inhibitor or competing ligand from its target.

Molecules are shown by their SMILES.

Sequence of PIK3CA (human) (P42336 whole entry, looked up): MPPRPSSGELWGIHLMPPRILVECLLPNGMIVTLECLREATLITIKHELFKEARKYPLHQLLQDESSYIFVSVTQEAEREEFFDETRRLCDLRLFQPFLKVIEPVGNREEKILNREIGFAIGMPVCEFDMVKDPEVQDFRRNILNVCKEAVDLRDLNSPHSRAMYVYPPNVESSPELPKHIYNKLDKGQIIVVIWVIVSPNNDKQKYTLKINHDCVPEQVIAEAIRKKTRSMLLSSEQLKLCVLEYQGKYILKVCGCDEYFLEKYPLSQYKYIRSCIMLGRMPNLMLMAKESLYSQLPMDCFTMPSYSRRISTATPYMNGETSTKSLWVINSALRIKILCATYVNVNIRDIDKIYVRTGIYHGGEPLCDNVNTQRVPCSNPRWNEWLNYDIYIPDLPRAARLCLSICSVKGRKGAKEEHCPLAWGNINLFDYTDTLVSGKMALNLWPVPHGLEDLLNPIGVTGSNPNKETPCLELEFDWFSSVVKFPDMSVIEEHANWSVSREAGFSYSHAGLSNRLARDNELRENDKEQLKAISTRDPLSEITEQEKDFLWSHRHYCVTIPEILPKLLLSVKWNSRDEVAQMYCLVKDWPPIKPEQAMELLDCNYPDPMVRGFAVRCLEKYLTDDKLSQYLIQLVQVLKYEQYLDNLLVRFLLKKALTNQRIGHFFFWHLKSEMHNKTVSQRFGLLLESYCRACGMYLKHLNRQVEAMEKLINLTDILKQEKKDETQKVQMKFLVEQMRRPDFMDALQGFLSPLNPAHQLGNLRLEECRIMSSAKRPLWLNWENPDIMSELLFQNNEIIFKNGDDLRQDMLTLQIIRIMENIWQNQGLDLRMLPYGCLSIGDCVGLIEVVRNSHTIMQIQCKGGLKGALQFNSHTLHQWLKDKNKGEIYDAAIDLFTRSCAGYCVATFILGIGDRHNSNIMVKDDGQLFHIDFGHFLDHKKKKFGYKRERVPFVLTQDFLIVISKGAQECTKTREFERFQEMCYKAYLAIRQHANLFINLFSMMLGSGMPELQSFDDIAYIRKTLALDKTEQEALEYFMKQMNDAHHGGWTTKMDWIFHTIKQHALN
Sequence of PIK3CG (human) (P48736 whole entry, looked up): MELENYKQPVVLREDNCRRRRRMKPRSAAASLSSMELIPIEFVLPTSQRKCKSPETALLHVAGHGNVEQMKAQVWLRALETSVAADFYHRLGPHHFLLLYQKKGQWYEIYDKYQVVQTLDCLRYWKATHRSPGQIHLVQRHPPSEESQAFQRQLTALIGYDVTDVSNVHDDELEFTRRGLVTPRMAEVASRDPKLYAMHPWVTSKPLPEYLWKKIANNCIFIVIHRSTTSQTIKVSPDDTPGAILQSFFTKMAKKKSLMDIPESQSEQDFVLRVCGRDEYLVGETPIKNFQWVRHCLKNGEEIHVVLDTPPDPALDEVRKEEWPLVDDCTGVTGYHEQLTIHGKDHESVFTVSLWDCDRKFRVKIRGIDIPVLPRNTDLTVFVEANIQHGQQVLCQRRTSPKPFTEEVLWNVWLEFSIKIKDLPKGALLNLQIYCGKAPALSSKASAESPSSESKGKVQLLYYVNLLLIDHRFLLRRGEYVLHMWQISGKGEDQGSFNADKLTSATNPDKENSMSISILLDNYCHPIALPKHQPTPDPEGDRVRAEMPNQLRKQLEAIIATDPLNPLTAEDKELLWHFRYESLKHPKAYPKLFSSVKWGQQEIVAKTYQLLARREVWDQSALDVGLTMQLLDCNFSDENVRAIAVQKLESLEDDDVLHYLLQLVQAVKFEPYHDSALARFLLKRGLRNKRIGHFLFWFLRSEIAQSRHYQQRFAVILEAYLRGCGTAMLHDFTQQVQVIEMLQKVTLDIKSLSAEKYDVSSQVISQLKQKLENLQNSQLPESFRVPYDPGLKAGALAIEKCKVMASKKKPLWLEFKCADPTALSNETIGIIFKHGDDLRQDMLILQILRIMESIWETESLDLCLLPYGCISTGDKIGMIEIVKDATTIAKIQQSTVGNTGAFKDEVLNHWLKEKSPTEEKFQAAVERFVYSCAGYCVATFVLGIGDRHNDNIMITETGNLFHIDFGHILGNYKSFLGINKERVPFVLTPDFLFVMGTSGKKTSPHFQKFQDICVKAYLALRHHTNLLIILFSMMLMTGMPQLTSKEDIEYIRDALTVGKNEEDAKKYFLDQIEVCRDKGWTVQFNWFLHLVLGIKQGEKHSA

In turn, `COc1cncc(-c2ccc3nc(Nc4cccc(S(C)(=O)=O)c4)sc3c2)c1` showed a Ki at PIK3CG (human) of less than 100 nM.
Consider `CCOc1ncc(-c2ccc3nc(Nc4cnccn4)sc3n2)cc1OC`, for which the Ki at PIK3CA (human) and on PIK3CG (human) was less than 100 nM throughout.
In the case of `COc1cc(-c2ccc3nc(Nc4cccnc4)sc3c2)cnc1OC`, the Ki at PIK3CA (human) and on PIK3CG (human) was less than 100 nM each time.
Consider `COc1cc(-c2ccc3nc(Nc4ncccn4)sc3c2)cnc1OC`, for which the Ki at PIK3CA (human) and on PIK3CG (human) was less than 100 nM throughout.
As to `COc1cc(-c2ccc3nc(Nc4ccn(C)n4)sc3c2)cnc1OC`, the Ki at PIK3CA (human) and on PIK3CG (human) was less than 100 nM each time.
On to `COc1cc(-c2ccc3nc(Nc4cncc(C)n4)sc3c2)cnc1OC`, for which the Ki on PIK3CA (human) and on PIK3CG (human) was less than 100 nM in each case.
On to `CCOc1cc(-c2ccc3nc(Nc4cnccn4)sc3n2)cnc1OCC`, for which the Ki at PIK3CA (human) and at PIK3CG (human) was less than 100 nM throughout.
Turning to `CCOc1cncc(Nc2nc3ccc(-c4cnc(OC)c(OC)c4)cc3s2)n1`, the Ki at PIK3CA (human) and on PIK3CG (human) was less than 100 nM throughout.
Regarding `COc1cncc(-c2ccc3nc(Nc4ccc(C)nn4)sc3c2)c1`, the Ki on PIK3CA (human) and at PIK3CG (human) was less than 100 nM throughout.
The compound `Cc1ccc(Nc2nc3ccc(-c4cncc(C(F)(F)F)c4)cc3s2)nn1` displayed a Ki at PIK3CG (human) of less than 100 nM.
Turning to `COc1cc(-c2ccc3nc(Nc4cnccn4)sc3c2)cnc1N`, the Ki at PIK3CA (human) and at PIK3CG (human) was less than 100 nM each time.
`COc1cncc(-c2ccc3nc(Nc4ccc5c(c4)N(C(C)=O)CC5)sc3c2)c1` gave a Ki at PIK3CG (human) of less than 100 nM.
Take `FC(F)(F)c1cncc(-c2ccc3nc(Nc4cnccn4)sc3c2)c1`: the Ki on PIK3CA (human) was less than 100 nM.
For the compound `FC(F)(F)c1cncc(-c2ccc3nc(Nc4cnn(CC5CCCO5)c4)sc3c2)c1` (centres undefined), the Ki on PIK3CA (human) and at PIK3CG (human) was less than 100 nM in each case.
With `COc1cc(-c2ccc3nc(Nc4ncc(C)s4)sc3c2)cnc1OC`, the Ki at PIK3CA (human) and on PIK3CG (human) was less than 100 nM in each case.
In turn, `CCn1cc(Nc2nc3ccc(-c4cncc(C(F)(F)F)c4)cc3s2)cn1` displayed a Ki on PIK3CA (human) of less than 100 nM.
On to `CCOc1ncc(-c2ccc3nc(Nc4cnccn4)sc3c2)cc1OC`, for which the Ki at PIK3CA (human) and at PIK3CG (human) was less than 100 nM throughout.
In turn, `COc1cncc(-c2ccc3nc(Nc4nc(C)cs4)sc3c2)c1` showed a Ki at PIK3CG (human) of less than 100 nM.
`COc1cncc(-c2ccc3nc(Nc4cccc(NC(C)=O)c4)sc3c2)c1` came in with a Ki at PIK3CG (human) of less than 100 nM.
Same read-out and setting: as for `CCCCNS(=O)(=O)c1cccc(Nc2nc3ccc(-c4cncc(OC)c4)cc3s2)c1`, the figure is less than 100 nM; as for `COc1cncc(-c2ccc3nc(Nc4cccc(C)n4)sc3c2)c1`, less than 100 nM; as for `COc1cncc(-c2ccc3nc(Nc4ccc(CC(N)=O)cc4)sc3c2)c1`, less than 100 nM.
As for `FC(F)(F)c1cncc(-c2ccc3nc(Nc4ccncn4)sc3c2)c1`, the Ki on PIK3CA (human) and on PIK3CG (human) was less than 100 nM each time.
In the case of `CCN(CC)C(=O)c1cccc(Nc2nc3ccc(-c4cncc(OC)c4)cc3s2)n1`, the Ki at PIK3CA (human) is less than 100 nM.
On to `CNC(=O)Cn1cc(Nc2nc3ccc(-c4cncc(C(F)(F)F)c4)cc3s2)cn1`, for which the Ki on PIK3CA (human) and at PIK3CG (human) was less than 100 nM throughout.
Regarding `COc1cncc(-c2ccc3nc(Nc4cc[nH]n4)sc3c2)c1`, the Ki at PIK3CA (human) and on PIK3CG (human) was less than 100 nM each time.
`COc1cncc(-c2ccc3nc(Nc4ccc(Cl)nn4)sc3c2)c1` yielded a Ki at PIK3CG (human) of less than 100 nM.
Turning to `COc1cncc(-c2ccc3nc(Nc4cccc(CO)c4)sc3c2)c1`, the Ki at PIK3CA (human) is less than 100 nM.
For the compound `COc1cc(-c2ccc3nc(Nc4cccc(C)n4)sc3c2)cnc1OC`, the Ki at PIK3CA (human) and at PIK3CG (human) was less than 100 nM throughout.
For the compound `COc1cc(-c2ccc3nc(Nc4nnc(C)s4)sc3c2)cnc1OC`, the Ki on PIK3CA (human) and on PIK3CG (human) was less than 100 nM each time.
`COc1cncc(-c2ccc3nc(Nc4cccnc4)sc3c2)c1` had a Ki on PIK3CG (human) of less than 100 nM.
On the same count and under the same terms, as for `Nc1ccc(Nc2nc3ccc(-c4cncc(C(F)(F)F)c4)cc3s2)cn1`, the figure is less than 100 nM.
On to `COc1ncc(-c2ccc3nc(Nc4cnccn4)sc3c2)cc1OC(C)C`, for which the Ki at PIK3CA (human) and on PIK3CG (human) was less than 100 nM each time.
As for `COc1ncc(-c2ccc3nc(Nc4cccnc4)sc3n2)cc1OC(C)C`, the Ki at PIK3CA (human) and on PIK3CG (human) was less than 100 nM each time.
Regarding `COCCn1cc(Nc2nc3ccc(-c4cncc(C(F)(F)F)c4)cc3s2)cn1`, the Ki on PIK3CA (human) and at PIK3CG (human) was less than 100 nM in each case.
As to `COc1ncc(-c2ccc3nc(Nc4cnccn4)sc3n2)cc1OC(C)C`, the Ki at PIK3CA (human) and on PIK3CG (human) was less than 100 nM in each case.
For the compound `COc1cncc(Nc2nc3ccc(-c4cnc(OC)c(OC)c4)cc3s2)n1`, the Ki on PIK3CA (human) and on PIK3CG (human) was less than 100 nM throughout.
For the compound `COc1cc(-c2ccc3nc(Nc4cc[nH]n4)sc3c2)cnc1OC`, the Ki at PIK3CA (human) and on PIK3CG (human) was less than 100 nM throughout.
Turning to `COc1cncc(-c2ccc3nc(Nc4cccnc4)sc3n2)c1`, the Ki on PIK3CG (human) was less than 100 nM.
Consider `O=C(O)Cn1cc(Nc2nc3ccc(-c4cncc(C(F)(F)F)c4)cc3s2)cn1`, for which the Ki on PIK3CA (human) and at PIK3CG (human) was less than 100 nM in each case.
Turning to `COc1cc(-c2ccc3nc(Nc4nccc(C)n4)sc3c2)cnc1OC`, the Ki at PIK3CA (human) and on PIK3CG (human) was less than 100 nM in each case.
In the case of `CCc1ncc(-c2ccc3nc(Nc4cnccn4)sc3c2)cc1OC`, the Ki at PIK3CG (human) is less than 100 nM.
Turning to `COc1cncc(-c2ccc3nc(Nc4cnccn4)sc3c2)c1`, the Ki at PIK3CA (human) and at PIK3CG (human) was less than 100 nM throughout.
On to `CCOc1cc(-c2ccc3nc(Nc4cnccn4)sc3c2)cnc1OC`, for which the Ki at PIK3CA (human) and on PIK3CG (human) was less than 100 nM throughout.
`Cn1cc(Nc2nc3ccc(-c4cncc(C(F)(F)F)c4)cc3s2)cn1`: at PIK3CG (human), the Ki was less than 100 nM.
`COc1cc(-c2ccc3nc(Nc4cnccn4)sc3c2)cnc1C`: the Ki at PIK3CA (human) and on PIK3CG (human) was less than 100 nM in each case.
For `COc1cncc(-c2ccc3nc(Nc4ccncn4)sc3c2)c1`, the Ki at PIK3CA (human) and at PIK3CG (human) was less than 100 nM in each case.
On to `COc1cncc(-c2ccc3nc(Nc4ccccn4)sc3c2)c1`, for which, on PIK3CG (human), the inhibition constant (Ki) was less than 100 nM.
With `COc1cncc(-c2ccc3nc(Nc4ccc5nc[nH]c5c4)sc3c2)c1`, the Ki on PIK3CA (human) and on PIK3CG (human) was less than 100 nM throughout.
Take `COc1cc(-c2ccc3nc(Nc4cnccn4)sc3n2)cnc1OC`: on PIK3CG (human), the Ki is less than 100 nM.
Turning to `COc1cncc(-c2ccc3nc(Nc4ccn(C)n4)sc3c2)c1`, the Ki at PIK3CA (human) and on PIK3CG (human) was less than 100 nM throughout.
Take `FC(F)(F)c1cncc(-c2ccc3nc(Nc4cccnc4)sc3n2)c1`: the Ki at PIK3CG (human) is less than 100 nM.
Turning to `COc1cncc(-c2ccc3nc(Nc4cncc(C)n4)sc3c2)c1`, the Ki on PIK3CA (human) and at PIK3CG (human) was less than 100 nM in each case.
Turning to `COc1cncc(-c2ccc3nc(Nc4nccs4)sc3c2)c1`, the Ki at PIK3CA (human) and at PIK3CG (human) was less than 100 nM in each case.
As to `CCCn1ccc(Nc2nc3ccc(-c4cnc(OC)c(OC)c4)cc3s2)n1`, the Ki at PIK3CA (human) and on PIK3CG (human) was less than 100 nM throughout.
On to `CCN(CC)C(=O)c1cccc(Nc2nc3ccc(-c4cncc(OC)c4)cc3s2)c1`, for which the Ki at PIK3CG (human) is less than 100 nM.
At PIK3CG (human), `COc1cncc(-c2ccc3nc(Nc4nncs4)sc3c2)c1` had a Ki of less than 100 nM.
Take `CCOc1cc(-c2ccc3nc(Nc4cnccn4)sc3c2)cnc1OCC`: the Ki at PIK3CA (human) and on PIK3CG (human) was less than 100 nM in each case.
Regarding `COc1cccc(Nc2nc3ccc(-c4cnc(OC)c(OC)c4)cc3s2)n1`, the Ki on PIK3CA (human) and at PIK3CG (human) was less than 100 nM in each case.
For `CCOc1ncc(-c2ccc3nc(Nc4cccnc4)sc3n2)cc1OC`, the Ki on PIK3CA (human) and at PIK3CG (human) was less than 100 nM each time.
In the case of `COc1cc(-c2ccc3nc(Nc4cccnc4)sc3n2)cnc1OC`, the inhibitory constant (Ki) at PIK3CA (human) and at PIK3CG (human) was less than 100 nM each time.
`COc1cc(-c2ccc3nc(Nc4ccncn4)sc3c2)cnc1OC`: the Ki on PIK3CA (human) and on PIK3CG (human) was less than 100 nM in each case.
Consider `CNC(=O)Cc1ccc(Nc2nc3ccc(-c4cncc(OC)c4)cc3s2)cc1`, for which the Ki at PIK3CG (human) is less than 100 nM.
Same read-out and setting: then `COc1cncc(-c2ccc3nc(Nc4ccc(N)cc4)sc3c2)c1`, with less than 100 nM.
On to `COc1cc(-c2ccc3nc(Nc4ccccn4)sc3c2)cnc1OC`, for which the Ki at PIK3CA (human) and on PIK3CG (human) was less than 100 nM throughout.
Take `COc1cc(-c2ccc3nc(Nc4cnccn4)sc3c2)cnc1OC`: the Ki on PIK3CA (human) and on PIK3CG (human) was less than 100 nM in each case.
On PIK3CG (human), `CCOc1cc(-c2ccc3nc(Nc4cccnc4)sc3n2)cnc1OCC` registered a Ki of less than 100 nM.
At PIK3CG (human), `COc1cncc(-c2ccc3nc(Nc4ccc(N(C)C(C)=O)cc4)sc3c2)c1` gave a Ki of less than 100 nM.
